Laboratory results taken from article PMC6934184, “Selective DNA-PKcs inhibition extends the therapeutic index of localized radiotherapy and chemotherapy” (The Journal of Clinical Investigation, 2019).

Target: T1, KIT T670I (Homo sapiens, UniProt P10721, T670I)
T1 construct: purchased Thermo Fisher Scientific (Life Technologies) SelectScreen
Test: SelectScreen Z'LYTE
Assay type: biochemical
In short: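 SelectScreen broad panel; activity (Z'LYTE, Adapta) plus binding formats. ATP: Km app for CSF1R Z'LYTE; 10 for CAMK1 Adapta. Readout = % per kinase.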

T1 sequence (P10721 26-976 T670I): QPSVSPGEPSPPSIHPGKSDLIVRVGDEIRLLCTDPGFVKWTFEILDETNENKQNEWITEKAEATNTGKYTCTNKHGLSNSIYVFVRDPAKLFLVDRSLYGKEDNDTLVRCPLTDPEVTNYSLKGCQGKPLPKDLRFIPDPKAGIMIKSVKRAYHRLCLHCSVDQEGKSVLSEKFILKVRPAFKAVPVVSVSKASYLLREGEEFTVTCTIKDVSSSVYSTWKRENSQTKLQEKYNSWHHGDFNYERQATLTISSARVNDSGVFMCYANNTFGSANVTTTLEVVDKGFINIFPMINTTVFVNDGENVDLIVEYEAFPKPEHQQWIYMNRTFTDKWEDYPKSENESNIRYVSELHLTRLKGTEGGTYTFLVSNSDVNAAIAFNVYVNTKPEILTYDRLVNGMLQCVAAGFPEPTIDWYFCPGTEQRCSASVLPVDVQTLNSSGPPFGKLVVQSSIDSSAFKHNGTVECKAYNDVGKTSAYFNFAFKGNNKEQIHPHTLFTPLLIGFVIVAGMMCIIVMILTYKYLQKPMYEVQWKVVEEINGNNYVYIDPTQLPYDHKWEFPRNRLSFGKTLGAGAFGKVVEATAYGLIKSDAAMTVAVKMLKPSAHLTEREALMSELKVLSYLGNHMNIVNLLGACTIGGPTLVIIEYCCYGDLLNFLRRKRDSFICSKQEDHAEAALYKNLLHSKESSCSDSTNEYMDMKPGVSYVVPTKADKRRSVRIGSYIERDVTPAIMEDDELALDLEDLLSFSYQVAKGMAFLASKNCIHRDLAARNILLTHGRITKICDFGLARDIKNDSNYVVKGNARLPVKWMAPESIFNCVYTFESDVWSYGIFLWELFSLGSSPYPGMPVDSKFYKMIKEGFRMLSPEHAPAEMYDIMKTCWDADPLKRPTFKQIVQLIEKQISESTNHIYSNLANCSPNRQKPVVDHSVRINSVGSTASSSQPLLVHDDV

Compound: CN(C(=O)CN1CCOCC1)c1ccc2sc3c(-c4cccc5c(=O)cc(N6CC7CCC(C6)O7)oc45)cccc3c2c1 [NU5455]
- inhibition at 1 µM: -24.4%
